Each block holds one compound with its values, some of them ahead of it.
Experiments:
[1] = molecular target: T1, EGFR (Homo sapiens, UniProt P00533); assay: EGFR Activation-Inhibiting Test (DELFIA, EGF-stimulated A431 cells); type: cell-based; details: 60 min compound, EGF stimulation 45 min, read-out: IC50 (inhibition of EGF-stimulated EGFR activation)
T1 construct: endogenous in cells; host or cells: A431 (human epidermoid carcinoma)
Protocol: Cell seeding and starving: A431 (human epidermoid carcinoma) cells diluted in 10% […] containing DMEM are seeded at 1.3×10^4 cells/well in 96-well plates and incubated overnight. Then the cell culture medium is replaced with 90 μL/well serum-free DMEM medium. The plates are incubated overnight for starvation.
Compound dilution and treatment: the test compounds are diluted in a 3-fold series in FBS-free medium containing 5% DMSO. 10 μL/well of the diluted compound is added into cells, 10 μL/well of 5% DMSO without test compound is added into the control wells. Duplication study is performed for each test point. Then, the plates are incubated at 37° C. for 60 minutes in a 5% CO2 incubator. 10 μL/well of 200 ng/mL EGF (Biosource, PHG0064) is added and incubate the plates at 37° C. for 45 minutes in the 5% CO2 incubator.
Lysate preparation: the medium is removed, and 100 μL/well of 50 mM Tris-Cl, pH 8.0 cell lysis buffer (containing 0.5 M NaCl, 0.2 mM EDTA, 0.1% Triton X-100, 1 μg/mL aprotinin, 0.75 μg/mL leupeptin, 1 μg/mL pepstatin, 1 mM DTT, 500 μM sodium vanadate, and 1 mM PMSF) is added into each well to lyse cells. The protease inhibitors are added right before use. The cell lysate is frozen at −80° C. overnight.
Plate coating and blocking: 100 μL/well of 0.5 μg/ml anti-EGFR antibody (Perkin Elmer, AF231) diluted in PBS is added to a 96-well DELFIA plate (Perkin Elmer, AAAND-0001) and incubated at 25° C. overnight with gentle shaking. The solution is discarded. The plate is washed 3 times with 200 μL/well of DELFIA wash buffer (PBS buffer containing 0.05% Tween-20). 200 μL/well of blocking buffer (PBS containing 0.137 M of NaCl, 0.0027 M of KCl, 0.01 M of Na2PO4.12H2O, 0.0015 M of KH2PO4, pH7.4, and 1% BSA) is added into each well and the plate is incubated at 25° C. for 2 h with gentle shaking.
Binding: the blocking buffer is discarded and the plate is washed with 200 μL/well of DELFIA wash buffer 3 times. 80 μL/well of the sample diluent (20 mM Tris-Cl/pH7.3, 150 mM NaCl, 0.1% of BSA, and 0.05% Tween-20) and 20 μL/well of cell lysate are then added to each well. Incubate the plate at 25° C. for additional 1 h with gentle shaking.
Detection: The plate is washed again with 200 μL/well of DELFIA wash buffer for 3 times. 100 μL/well of […] Eu-PT66 antibody (Perkin Elmer, AD0040) diluted in DELFIA assay buffer (Perkin Elmer, 1244-106) is added and incubate the plate at 25° C. for 1 h with gentle shaking. After washing with 200 μL/well of DELFIA wash buffer 3 times, 100 μL/well of DELFIA enhancement buffer (Perkin Elmer, 4001-0010) is added. Incubate the plate at 25° C. for 30 min with gentle shaking.
Readout: fluorescence signal is measured at 340 nm excitation and 620 nm emission on Victor^3 (PerkinElmer).
Inhibition rates are calculated as follow:
[Fluorescence Readout]Treated is the readout of the wells treated with test compound upon EGF stimulation
[Fluorescence Readout]Untreated is the readout of the wells with neither compound treatment nor EGF stimulation, which is used as cell background signal
[Fluorescence Readout]EGF is the readout of wells with EGF stimulation, but no compound treatment, which is used as maximal signal
IC50 is calculated using XL-Fit 2.0 software.

[2] = system: HCC827 (human non small cell lung cancer, NSCLC) xenograft; assay: In vivo anti-tumor test, HCC827 subcutaneous xenograft; details: HCC827 xenograft in nude mice
Protocol: (§1) Human tumor cell lines: Fadu (human head and neck, pharynx carcinoma, HTB-43), HCC827 (human non small cell lung cancer, NSCLC; CRL-2868), A431 (human epidermoid carcinoma, CRL-2592) cell lines were purchased from ATCC; Fadu, HCC827 and A431 cells were grown in EMEM, RPMI 1640 and DMEM medium plus 10% FBS respectively. These cells were incubated in a humidifier incubator at 37° C. and under 5% CO2.
(§2) Animals: Athymic mice (6-8 weeks) were purchased from Shanghai SLAC laboratory animal CO. LTD. The animals were housed in the SPF environment, 4 animals/cage under standard conditions (12:12 h light/dark, 40-50% relative humidity at 20-25° C.) and were given free access to Co^60 radiated-sterile diet and sterile water.
(§3) Agents: Test compounds were formulated in sterile 0.5% CMC-Na at different concentrations (0.05˜1.0 mg/mL), and then stored at 4° C.
(§4) Subcutaneous implantation of tumor cells and anti-tumor efficacy study: The tumor cells were incubated at 37° C. in a 5% CO2 incubator until they reached approximately 80% confluence. Cells were detached by 0.05% Trypsin-EDTA, centrifuged at 800 rpm, and the cells were suspended in serum free medium. The concentration was adjusted for nude mice implantation. The nude mice were quarantined for several days before implantation, and 3×10^6 FaDu or A431 cells in 0.1 mL medium, or 5×10^6 HCC827 cells in the 0.2 mL medium were subcutaneously injected to the right lateral flank of nude mice.
One to three weeks after inoculation, when average tumor volume reached 100-300 mm^3, the animals were randomized and divided into vehicle and compound treated groups. The mice were orally administrated with either the vehicle, 0.5% CMC-Na, or the test compounds at different dose levels once a day. Tumor volume was measured 2-3 times per week by caliper for length and width, and was calculated using the formula: Tumor volume (TV, mm^3)=width^2×length/2. Animal body weight and behavior were observed during the experiment. Tumor growth inhibition was calculated as follows: TGI (%)=100−(T−T0)/(C−C0)×100%, where T represents mean tumor volume of a treated group on a specific day during the experiment, T0 represents mean tumor volume of the same treated group on the first day of treatment, C represents mean tumor volume of a control group on the specific day during the experiment, and C0 represents mean tumor volume of the same control group on the first day of treatment.
Tumor volume data were expressed as Mean±SD. One-way ANOVA was used for multiple comparisons and Student's t-test was used for comparison with vehicle control. Differences were considered statistically significant at P<0.05.

[3] = system: A431 (human epidermoid carcinoma) xenograft; assay: In vivo anti-tumor test, A431 subcutaneous xenograft; details: A431 xenograft in nude mice
Protocol: as §1, §2, §3, §4
(§5) One to three weeks after inoculation, when average tumor volume reached 100-300 mm^3, the animals were randomized and divided into vehicle and compound treated groups. The mice were orally administrated with either the vehicle, 0.5% CMC-Na, or the test compounds at different dose levels once a day. Tumor volume was measured 2-3 times per week by caliper for length and width, and was calculated using the formula: Tumor volume (TV, mm^3)=width^2×length/2. Animal body weight and behavior were observed during the experiment. […]
(§6) Tumor volume data were expressed as Mean±SD. […]

[4] = molecular target: T2, hERG channels (Homo sapiens, UniProt Q12809); assay: hERG assay, manual whole-cell patch clamp; type: cell-based; details: CHO cells expressing hERG, five concentrations, read-out: IC50 for inhibition of hERG tail currents
T2 construct: expressed in transfected cells; host or cells: CHO
T2 sequence (Q12809 whole entry): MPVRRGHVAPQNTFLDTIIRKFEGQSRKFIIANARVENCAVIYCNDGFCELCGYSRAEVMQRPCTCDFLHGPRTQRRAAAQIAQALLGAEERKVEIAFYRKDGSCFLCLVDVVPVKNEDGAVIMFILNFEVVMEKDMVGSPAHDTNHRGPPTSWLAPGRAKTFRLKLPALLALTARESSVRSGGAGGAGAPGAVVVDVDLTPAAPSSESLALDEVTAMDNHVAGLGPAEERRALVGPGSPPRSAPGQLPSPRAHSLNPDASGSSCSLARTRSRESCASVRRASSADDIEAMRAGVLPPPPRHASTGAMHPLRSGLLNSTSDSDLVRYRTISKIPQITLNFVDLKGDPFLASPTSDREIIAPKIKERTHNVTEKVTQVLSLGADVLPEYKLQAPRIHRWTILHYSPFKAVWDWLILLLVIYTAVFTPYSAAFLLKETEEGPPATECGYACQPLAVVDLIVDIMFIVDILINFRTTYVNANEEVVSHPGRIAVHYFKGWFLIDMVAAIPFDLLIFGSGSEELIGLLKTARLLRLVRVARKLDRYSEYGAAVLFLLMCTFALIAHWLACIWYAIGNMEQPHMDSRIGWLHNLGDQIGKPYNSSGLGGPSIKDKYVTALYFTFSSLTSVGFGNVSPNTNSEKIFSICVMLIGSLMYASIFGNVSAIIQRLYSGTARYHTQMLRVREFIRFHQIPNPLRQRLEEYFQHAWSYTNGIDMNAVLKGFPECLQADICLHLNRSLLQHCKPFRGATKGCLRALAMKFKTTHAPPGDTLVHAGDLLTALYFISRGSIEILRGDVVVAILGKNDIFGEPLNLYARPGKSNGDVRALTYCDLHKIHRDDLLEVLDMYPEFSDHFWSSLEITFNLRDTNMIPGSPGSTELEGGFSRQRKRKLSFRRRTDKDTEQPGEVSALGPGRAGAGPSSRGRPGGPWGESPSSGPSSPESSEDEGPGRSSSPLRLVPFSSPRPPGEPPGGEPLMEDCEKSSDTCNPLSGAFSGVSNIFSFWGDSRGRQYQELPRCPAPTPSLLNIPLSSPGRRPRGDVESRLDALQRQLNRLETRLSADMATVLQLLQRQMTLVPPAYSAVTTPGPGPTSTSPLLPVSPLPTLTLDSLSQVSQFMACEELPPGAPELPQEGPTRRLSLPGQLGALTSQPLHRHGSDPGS
Protocol: A CHO cell line stably transfected with hERG cDNA and expressing hERG channels was used for the study. Cells were cultured in medium containing:
For the electrophysiological recordings the following solutions were used
Whole-cell recordings were performed using a EPC10 USB(HEKA). The cells were voltage clamped at a holding potential of −80 mV. The hERG current was activated by depolarizing at +20 mV for 2 sec, after which the current was taken back to −50 mV for 2 sec to remove the inactivation and observe the deactivating tail current. The first step at −50 mV was used as a baseline for measuring the tail current peak amplitude.
Compounds were prepared as a 10 mM DMSO stock in a glass vial. The stock solution was mixed vigorously for 10 minute at room temperature. For testing, the compound was diluted in a glass vial using solution; the dilution was prepared no longer than 30 minutes before use. Equal amounts of DMSO (0.1%) were present at final dilution.
After achieving whole-cell configuration, the cells were monitored for 90 sec to assess stability and washed with external solution for 66 sec. The voltage protocol described above was then applied to the cells every 20 sec throughout the whole procedure. Only stable cells with recording parameters above threshold were allowed to enter the drug addition procedure. […]
Data were analyzed using Pulsefit and Origin 7 (Originlab Corporation).

[5] = system: Fadu (human head and neck, pharynx carcinoma) xenograft; assay: In vivo anti-tumor test, FaDu subcutaneous xenograft; details: FaDu xenograft in nude mice
Protocol: as §1, §2, §3, §4, §5, §6

T1 sequence (P00533 25-1210): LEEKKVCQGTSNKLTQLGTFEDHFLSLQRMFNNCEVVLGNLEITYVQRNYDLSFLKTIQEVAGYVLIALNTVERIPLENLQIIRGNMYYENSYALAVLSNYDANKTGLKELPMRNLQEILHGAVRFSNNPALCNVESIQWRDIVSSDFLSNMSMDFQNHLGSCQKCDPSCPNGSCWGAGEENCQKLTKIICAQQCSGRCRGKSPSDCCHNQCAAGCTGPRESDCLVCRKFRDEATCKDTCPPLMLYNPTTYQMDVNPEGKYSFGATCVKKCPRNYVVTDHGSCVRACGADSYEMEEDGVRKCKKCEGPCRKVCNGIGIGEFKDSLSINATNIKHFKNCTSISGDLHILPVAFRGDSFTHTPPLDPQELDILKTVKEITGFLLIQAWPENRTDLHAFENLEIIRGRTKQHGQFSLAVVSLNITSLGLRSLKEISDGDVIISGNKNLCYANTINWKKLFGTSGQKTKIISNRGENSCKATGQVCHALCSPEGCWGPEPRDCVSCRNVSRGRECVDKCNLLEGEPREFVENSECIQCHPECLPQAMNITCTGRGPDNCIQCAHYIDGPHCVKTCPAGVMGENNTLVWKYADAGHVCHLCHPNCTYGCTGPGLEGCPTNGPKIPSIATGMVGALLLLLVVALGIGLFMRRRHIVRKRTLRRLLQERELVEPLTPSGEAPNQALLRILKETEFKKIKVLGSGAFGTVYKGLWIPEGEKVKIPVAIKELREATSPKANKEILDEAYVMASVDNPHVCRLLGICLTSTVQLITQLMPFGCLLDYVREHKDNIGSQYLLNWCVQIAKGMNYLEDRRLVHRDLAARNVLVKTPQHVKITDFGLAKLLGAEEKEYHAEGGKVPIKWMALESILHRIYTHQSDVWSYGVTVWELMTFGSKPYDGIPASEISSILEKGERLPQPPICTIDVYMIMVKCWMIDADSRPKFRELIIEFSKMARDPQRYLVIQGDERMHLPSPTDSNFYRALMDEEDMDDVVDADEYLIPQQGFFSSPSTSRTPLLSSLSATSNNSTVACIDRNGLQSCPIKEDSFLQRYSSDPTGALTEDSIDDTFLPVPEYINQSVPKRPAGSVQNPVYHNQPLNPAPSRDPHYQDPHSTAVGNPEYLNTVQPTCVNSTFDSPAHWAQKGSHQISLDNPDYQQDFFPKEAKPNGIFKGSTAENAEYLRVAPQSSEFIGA

- IC50 [1]: 0.185 µM
SMILES: COc1cc2ncnc(Nc3ccc4c(cnn4Cc4cccc(F)c4)c3)c2cc1NC(=O)N1C[C@H]2CCN(C)[C@H]2C1 [Compound 1, (3aR,6aR)—N-(4-(1-(3-fluorobenzyl)-1H-indazol-5-ylamino)-7-methoxyquinazolin-6-yl)-1-methylhexahydropyrrolo[3,4-b]pyrrole-5(1H)-carboxamide]

- IC50 [1]: 0.439 µM
SMILES: COc1cc2ncnc(Nc3ccc4c(cnn4Cc4cccc(F)c4)c3)c2cc1NC(=O)N1C[C@@H]2CCN(C)[C@@H]2C1 [Compound 2, (3aS,6aS)—N-(4-(1-(3-fluorobenzyl)-1H-indazol-5-ylamino)-7-methoxyquinazolin-6-yl)-1-methylhexahydropyrrolo[3,4-b]pyrrole-5(1H)-carboxamide]

- IC50 [1]: 0.006 µM
SMILES: C#Cc1cccc(Nc2ncnc3cc(OC)c(NC(=O)N4C[C@H]5CCN(C)[C@H]5C4)cc23)c1 [Compound 3, (3aR,6aR)—N-(4-(3-ethynylphenylamino)-7-methoxyquinazolin-6-yl)-1-methyl-hexahydropyrrolo[3,4-b]pyrrole-5(1H)-carboxamide]
- TGI % ([2]; 0.5 mpk p.o. qd x 21 days): 59.2%
- TGI % ([2]; 1 mpk p.o. qd x 21 days): 114.7%
- TGI % ([2]; 2 mpk p.o. qd x 21 days): 127.8%
- TGI % ([2]; 5 mpk p.o. qd x 21 days): 140.8%
- TGI % ([3]; 2 mpk p.o. qd x 21 days): 21.3%
- TGI % ([3]; 5 mpk p.o. qd x 21 days): 62.8%
- TGI % ([3]; 10 mpk p.o. qd x 21 days): 85.3%
- IC50 [4]: 9.3 ± 1.2 µM
- TGI % ([5]; 2 mpk p.o. qd x 21 days): 46.1%
- TGI % ([5]; 5 mpk p.o. qd x 21 days): 66.9%
- TGI % ([5]; 10 mpk p.o. qd x 21 days): 95.2%

- IC50 [1]: 0.016 µM
SMILES: COc1cc2ncnc(Nc3ccc(OCc4cccc(F)c4)c(Cl)c3)c2cc1NC(=O)N1C[C@@H]2CCN(C)[C@@H]2C1 [Compound 4, (3aS,6aS)—N-(4-(3-chloro-4-(3-fluorobenzyloxy)phenylamino)-7-methoxyquinazolin-6-yl)-1-methylhexahydropyrrolo[3,4-b]pyrrole-5(1H)-carboxamide]

- IC50 [1]: 0.044 µM
SMILES: COc1cc2ncnc(Nc3ccc(OCc4cccc(F)c4)c(Cl)c3)c2cc1NC(=O)N1C[C@H]2CCN(C)[C@H]2C1 [Compound 5, (3aR,6aR)—N-(4-(3-chloro-4-(3-fluorobenzyloxy)phenylamino)-7-methoxyquinazolin-6-yl)-1-methylhexahydropyrrolo[3,4-b]pyrrole-5(1H)-carboxamide]

- IC50 [1]: 0.21 µM
SMILES: CN1CC[C@H]2CN(C(=O)Nc3ccc4ncnc(Nc5ccc(OCc6cccc(F)c6)c(Cl)c5)c4c3)C[C@H]21 [Compound 6, (3aS,6aS)—N-(4-(3-chloro-4-(3-fluorobenzyloxy)phenylamino)quinazolin-6-yl)-1-methylhexahydropyrrolo[3,4-b]pyrrole-5(1H)-carboxamide]

- IC50 [1]: 0.241 µM
SMILES: CN1CC[C@@H]2CN(C(=O)Nc3ccc4ncnc(Nc5ccc(OCc6cccc(F)c6)c(Cl)c5)c4c3)C[C@@H]21 [Compound 7]

From patent US9168253B2, “Quinazoline compounds” (HUTCHISON MEDIPHARMA LIMITED, priority 2010, dated 2015)
